# Test results from article PMC6120666 (The EMBO Journal, 2018).
# How the values were obtained:
# Assay in all cases: Drug affinity chromatography with c-ponatinib and LC-MS/MS (ponatinib interactome)
# Assay type in all cases: binding
# [1] = biological target: T1, proteins of U2OS cell lysate (Homo sapiens, UniProt O00159)
# T1 construct: Proteins enriched by c-ponatinib from U2OS cell lysate; endogenous in cells; host or cells: U2OS cell lysate
# Procedure, shortened: (§1)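 Proteins were identified by nano-UPLC–MS/MS after elution with formic acid and trypsin digestion. They were captured from U2OS lysate (2 mg protein per pulldown, NP-40 buffer) on amine-coupled NHS beads during a 2 h incubation at 4 °C.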
# [2] = biological target: T2, proteins of U2OS cell lysate (Homo sapiens, UniProt O95816)
# T2 construct: Proteins enriched by c-ponatinib from U2OS cell lysate; endogenous in cells; host or cells: U2OS cell lysate
# Procedure, shortened: as §1
# [3] = biological target: T3, proteins of U2OS cell lysate (Homo sapiens, UniProt P17987)
# T3 construct: Proteins enriched by c-ponatinib from U2OS cell lysate; endogenous in cells; host or cells: U2OS cell lysate
# T3 sequence (P17987 whole entry): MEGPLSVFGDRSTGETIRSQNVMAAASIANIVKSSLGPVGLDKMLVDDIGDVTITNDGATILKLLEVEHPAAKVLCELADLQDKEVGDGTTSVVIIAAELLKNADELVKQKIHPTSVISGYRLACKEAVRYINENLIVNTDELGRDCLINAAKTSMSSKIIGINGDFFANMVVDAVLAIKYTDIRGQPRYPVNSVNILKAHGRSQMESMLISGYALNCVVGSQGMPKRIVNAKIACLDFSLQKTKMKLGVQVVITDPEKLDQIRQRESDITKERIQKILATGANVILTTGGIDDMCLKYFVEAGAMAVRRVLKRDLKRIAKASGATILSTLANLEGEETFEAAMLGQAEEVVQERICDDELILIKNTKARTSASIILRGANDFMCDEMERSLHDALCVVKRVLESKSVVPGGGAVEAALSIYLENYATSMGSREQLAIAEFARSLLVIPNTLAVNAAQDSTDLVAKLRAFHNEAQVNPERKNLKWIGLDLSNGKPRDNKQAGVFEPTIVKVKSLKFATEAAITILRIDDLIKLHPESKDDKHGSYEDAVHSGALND
# Procedure, shortened: as §1
# [4] = biological target: T4, proteins of U2OS cell lysate (Homo sapiens, UniProt P48643)
# T4 construct: Proteins enriched by c-ponatinib from U2OS cell lysate; endogenous in cells; host or cells: U2OS cell lysate
# T4 sequence (P48643 whole entry): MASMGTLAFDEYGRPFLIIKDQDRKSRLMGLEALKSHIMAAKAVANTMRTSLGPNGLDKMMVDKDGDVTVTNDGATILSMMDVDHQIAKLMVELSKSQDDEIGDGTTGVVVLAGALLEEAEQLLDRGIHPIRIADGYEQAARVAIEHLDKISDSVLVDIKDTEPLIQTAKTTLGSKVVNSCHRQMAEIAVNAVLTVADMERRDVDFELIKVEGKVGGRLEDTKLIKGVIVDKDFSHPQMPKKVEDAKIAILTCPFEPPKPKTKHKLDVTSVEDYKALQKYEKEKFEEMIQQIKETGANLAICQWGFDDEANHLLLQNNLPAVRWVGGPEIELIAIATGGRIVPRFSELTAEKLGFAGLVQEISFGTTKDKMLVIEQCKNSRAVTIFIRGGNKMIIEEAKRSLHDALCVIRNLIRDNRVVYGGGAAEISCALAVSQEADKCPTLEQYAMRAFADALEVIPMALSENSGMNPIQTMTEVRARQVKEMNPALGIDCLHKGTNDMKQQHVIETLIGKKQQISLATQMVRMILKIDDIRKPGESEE
# Procedure, shortened: as §1
# [5] = biological target: T5, proteins of U2OS cell lysate (Homo sapiens, UniProt P49006)
# T5 construct: Proteins enriched by c-ponatinib from U2OS cell lysate; endogenous in cells; host or cells: U2OS cell lysate
# T5 sequence (P49006 whole entry): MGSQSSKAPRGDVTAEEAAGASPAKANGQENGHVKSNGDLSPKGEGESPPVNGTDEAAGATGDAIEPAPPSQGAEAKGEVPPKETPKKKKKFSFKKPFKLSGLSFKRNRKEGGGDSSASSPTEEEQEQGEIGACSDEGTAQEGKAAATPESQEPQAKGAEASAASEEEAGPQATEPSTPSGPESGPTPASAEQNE
# Procedure, shortened: as §1
# [6] = biological target: T6, proteins of U2OS cell lysate (Homo sapiens, UniProt P60900)
# T6 construct: Proteins enriched by c-ponatinib from U2OS cell lysate; endogenous in cells; host or cells: U2OS cell lysate
# T6 sequence (P60900 whole entry): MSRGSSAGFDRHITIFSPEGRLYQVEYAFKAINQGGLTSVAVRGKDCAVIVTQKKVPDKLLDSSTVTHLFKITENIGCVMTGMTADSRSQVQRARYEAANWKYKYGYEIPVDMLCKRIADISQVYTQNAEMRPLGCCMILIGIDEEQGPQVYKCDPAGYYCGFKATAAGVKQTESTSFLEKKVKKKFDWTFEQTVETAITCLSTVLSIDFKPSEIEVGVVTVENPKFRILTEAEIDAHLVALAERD
# Procedure, shortened: as §1
# [7] = biological target: T7, proteins of U2OS cell lysate (Homo sapiens, UniProt P62701)
# T7 construct: Proteins enriched by c-ponatinib from U2OS cell lysate; endogenous in cells; host or cells: U2OS cell lysate
# Procedure, shortened: as §1
# [8] = biological target: T8, proteins of U2OS cell lysate (Homo sapiens, UniProt P62805)
# T8 construct: Proteins enriched by c-ponatinib from U2OS cell lysate; endogenous in cells; host or cells: U2OS cell lysate
# Procedure, shortened: as §1
# [9] = biological target: T9, proteins of U2OS cell lysate (Homo sapiens, UniProt Q06830)
# T9 construct: Proteins enriched by c-ponatinib from U2OS cell lysate; endogenous in cells; host or cells: U2OS cell lysate
# Procedure, shortened: as §1
# [10] = biological target: T10, proteins of U2OS cell lysate (Homo sapiens, UniProt Q13247)
# T10 construct: Proteins enriched by c-ponatinib from U2OS cell lysate; endogenous in cells; host or cells: U2OS cell lysate
# Procedure, shortened: as §1
# [11] = biological target: T11, proteins of U2OS cell lysate (Homo sapiens, UniProt Q13435)
# T11 construct: Proteins enriched by c-ponatinib from U2OS cell lysate; endogenous in cells; host or cells: U2OS cell lysate
# T11 sequence (Q13435 whole entry): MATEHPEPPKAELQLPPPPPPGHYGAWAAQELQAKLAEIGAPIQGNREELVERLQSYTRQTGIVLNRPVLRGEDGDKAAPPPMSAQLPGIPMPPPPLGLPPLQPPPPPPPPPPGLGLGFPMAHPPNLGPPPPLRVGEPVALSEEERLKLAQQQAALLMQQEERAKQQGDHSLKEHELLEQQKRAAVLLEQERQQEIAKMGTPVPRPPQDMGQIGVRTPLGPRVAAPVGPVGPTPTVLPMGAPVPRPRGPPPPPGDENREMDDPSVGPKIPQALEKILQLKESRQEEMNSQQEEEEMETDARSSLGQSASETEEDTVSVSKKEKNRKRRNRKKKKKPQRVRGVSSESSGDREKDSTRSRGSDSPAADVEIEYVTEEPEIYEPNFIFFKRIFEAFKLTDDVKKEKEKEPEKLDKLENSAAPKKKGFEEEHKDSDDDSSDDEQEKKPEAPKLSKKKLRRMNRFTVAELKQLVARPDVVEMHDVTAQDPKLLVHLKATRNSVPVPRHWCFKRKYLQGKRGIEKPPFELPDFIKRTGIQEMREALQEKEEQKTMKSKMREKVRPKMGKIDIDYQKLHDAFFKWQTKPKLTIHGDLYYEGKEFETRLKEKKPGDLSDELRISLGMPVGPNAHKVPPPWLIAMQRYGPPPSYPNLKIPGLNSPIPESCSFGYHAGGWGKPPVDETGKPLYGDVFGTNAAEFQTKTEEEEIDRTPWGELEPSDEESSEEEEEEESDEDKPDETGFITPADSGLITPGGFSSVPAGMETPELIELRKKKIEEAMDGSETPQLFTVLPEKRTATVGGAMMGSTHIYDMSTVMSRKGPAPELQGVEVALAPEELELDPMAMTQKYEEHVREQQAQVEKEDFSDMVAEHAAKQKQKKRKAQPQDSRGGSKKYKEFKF
# Procedure, shortened: as §1
# [12] = biological target: T12, proteins of U2OS cell lysate (Homo sapiens, UniProt Q14697)
# T12 construct: Proteins enriched by c-ponatinib from U2OS cell lysate; endogenous in cells; host or cells: U2OS cell lysate
# Procedure, shortened: as §1
# [13] = biological target: T13, proteins of U2OS cell lysate (Homo sapiens, UniProt Q15019)
# T13 construct: Proteins enriched by c-ponatinib from U2OS cell lysate; endogenous in cells; host or cells: U2OS cell lysate
# T13 sequence (Q15019 whole entry): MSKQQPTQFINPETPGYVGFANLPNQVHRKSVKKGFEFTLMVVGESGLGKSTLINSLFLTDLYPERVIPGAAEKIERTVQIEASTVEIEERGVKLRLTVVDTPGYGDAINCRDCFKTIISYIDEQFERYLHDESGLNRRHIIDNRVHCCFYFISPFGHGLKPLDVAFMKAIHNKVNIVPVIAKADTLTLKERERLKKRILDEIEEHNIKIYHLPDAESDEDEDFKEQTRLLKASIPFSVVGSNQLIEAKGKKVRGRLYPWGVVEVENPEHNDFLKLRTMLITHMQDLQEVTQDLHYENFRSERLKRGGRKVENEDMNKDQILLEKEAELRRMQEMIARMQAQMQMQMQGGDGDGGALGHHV
# Procedure, shortened: as §1
# [14] = biological target: T14, proteins of U2OS cell lysate (Homo sapiens, UniProt Q92598)
# T14 construct: Proteins enriched by c-ponatinib from U2OS cell lysate; endogenous in cells; host or cells: U2OS cell lysate
# Procedure, shortened: as §1
# [15] = biological target: T15, proteins of U2OS cell lysate (Homo sapiens, UniProt Q96P70)
# T15 construct: Proteins enriched by c-ponatinib from U2OS cell lysate; endogenous in cells; host or cells: U2OS cell lysate
# Procedure, shortened: as §1
# [16] = biological target: T16, proteins of U2OS cell lysate (Homo sapiens, UniProt Q9BWU1)
# T16 construct: Proteins enriched by c-ponatinib from U2OS cell lysate; endogenous in cells; host or cells: U2OS cell lysate
# T16 sequence (Q9BWU1 whole entry): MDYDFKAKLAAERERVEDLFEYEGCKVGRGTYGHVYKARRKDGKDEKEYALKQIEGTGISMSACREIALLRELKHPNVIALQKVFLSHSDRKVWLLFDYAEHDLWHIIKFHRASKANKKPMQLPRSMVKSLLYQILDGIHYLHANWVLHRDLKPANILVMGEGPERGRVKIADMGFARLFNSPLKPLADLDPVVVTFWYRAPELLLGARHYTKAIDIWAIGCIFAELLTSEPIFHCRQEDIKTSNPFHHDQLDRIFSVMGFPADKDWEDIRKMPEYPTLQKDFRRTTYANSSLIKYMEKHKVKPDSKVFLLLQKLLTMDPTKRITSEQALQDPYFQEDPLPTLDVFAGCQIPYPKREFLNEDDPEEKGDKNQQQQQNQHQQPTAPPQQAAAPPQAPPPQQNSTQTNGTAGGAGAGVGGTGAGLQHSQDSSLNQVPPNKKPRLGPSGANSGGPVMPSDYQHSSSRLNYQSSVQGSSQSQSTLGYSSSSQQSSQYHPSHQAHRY
# Procedure, shortened: as §1
# [17] = biological target: T17, proteins of U2OS cell lysate (Homo sapiens, UniProt Q9UBN7)
# T17 construct: Proteins enriched by c-ponatinib from U2OS cell lysate; endogenous in cells; host or cells: U2OS cell lysate
# T17 sequence (Q9UBN7 whole entry): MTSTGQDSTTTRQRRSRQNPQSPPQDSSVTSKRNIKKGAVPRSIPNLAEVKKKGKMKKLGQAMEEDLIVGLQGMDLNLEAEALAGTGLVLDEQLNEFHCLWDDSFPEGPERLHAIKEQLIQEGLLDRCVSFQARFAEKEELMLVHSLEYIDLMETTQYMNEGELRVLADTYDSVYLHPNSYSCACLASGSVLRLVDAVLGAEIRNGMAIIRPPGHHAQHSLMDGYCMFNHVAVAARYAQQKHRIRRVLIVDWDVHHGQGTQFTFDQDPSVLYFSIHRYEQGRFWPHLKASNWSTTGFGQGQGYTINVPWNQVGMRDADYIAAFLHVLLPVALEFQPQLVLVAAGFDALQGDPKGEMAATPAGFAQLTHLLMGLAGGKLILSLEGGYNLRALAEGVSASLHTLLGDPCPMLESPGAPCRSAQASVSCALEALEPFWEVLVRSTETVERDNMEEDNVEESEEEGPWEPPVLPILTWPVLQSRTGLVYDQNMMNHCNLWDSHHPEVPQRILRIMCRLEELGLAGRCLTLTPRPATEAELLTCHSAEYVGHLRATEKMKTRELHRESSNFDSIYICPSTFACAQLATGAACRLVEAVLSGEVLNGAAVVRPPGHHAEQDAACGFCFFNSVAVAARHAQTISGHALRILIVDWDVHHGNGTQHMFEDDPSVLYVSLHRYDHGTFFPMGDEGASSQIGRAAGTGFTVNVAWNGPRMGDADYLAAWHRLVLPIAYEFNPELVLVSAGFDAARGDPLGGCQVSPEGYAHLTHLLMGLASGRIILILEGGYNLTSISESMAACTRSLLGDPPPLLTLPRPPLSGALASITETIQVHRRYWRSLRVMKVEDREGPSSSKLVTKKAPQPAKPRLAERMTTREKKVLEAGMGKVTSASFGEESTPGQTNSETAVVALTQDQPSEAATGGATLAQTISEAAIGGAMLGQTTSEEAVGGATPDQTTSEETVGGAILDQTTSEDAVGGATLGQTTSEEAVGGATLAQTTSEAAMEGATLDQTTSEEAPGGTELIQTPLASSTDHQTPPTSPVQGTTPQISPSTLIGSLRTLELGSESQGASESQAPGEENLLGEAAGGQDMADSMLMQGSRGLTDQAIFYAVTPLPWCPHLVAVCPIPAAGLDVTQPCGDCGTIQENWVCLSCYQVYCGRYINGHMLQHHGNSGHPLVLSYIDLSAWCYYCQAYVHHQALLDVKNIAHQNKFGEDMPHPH
# Procedure, shortened: as §1
# [18] = biological target: T18, proteins of U2OS cell lysate (Homo sapiens, UniProt Q9Y230)
# T18 construct: Proteins enriched by c-ponatinib from U2OS cell lysate; endogenous in cells; host or cells: U2OS cell lysate
# Procedure, shortened: as §1
# [19] = biological target: T19, proteins of U2OS cell lysate (Homo sapiens, UniProt Q9Y6K9)
# T19 construct: Proteins enriched by c-ponatinib from U2OS cell lysate; endogenous in cells; host or cells: U2OS cell lysate
# T19 sequence (Q9Y6K9 whole entry): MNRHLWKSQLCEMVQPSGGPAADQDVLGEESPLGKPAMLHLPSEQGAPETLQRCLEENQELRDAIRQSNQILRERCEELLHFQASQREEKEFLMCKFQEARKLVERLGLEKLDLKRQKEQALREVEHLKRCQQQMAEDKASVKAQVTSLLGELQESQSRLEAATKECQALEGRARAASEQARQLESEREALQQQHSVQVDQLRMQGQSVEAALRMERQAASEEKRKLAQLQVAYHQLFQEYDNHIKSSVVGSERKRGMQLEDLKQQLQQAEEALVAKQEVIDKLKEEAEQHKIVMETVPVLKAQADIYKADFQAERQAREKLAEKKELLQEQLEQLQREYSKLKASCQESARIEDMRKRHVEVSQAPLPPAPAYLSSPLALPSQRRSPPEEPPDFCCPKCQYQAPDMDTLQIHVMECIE
# Procedure, shortened: as §1
compound,measurement,setting,value
"Cc1ccc(C(=O)Nc2ccc(CN3CCN(CCCN)CC3)c(C(F)(F)F)c2)cc1C#Cc1cnc2cccnn12 [c-ponatinib, reference compound]",Average LFQ intensity,"[1]; captured protein MYO1C, Rank 209",21.7408
same,Average LFQ intensity,"[2]; captured protein BAG2, Rank 152",22.6462
same,Average LFQ intensity,"[3]; captured protein TCP1, Rank 149",22.697
same,Average LFQ intensity,"[4]; captured protein CCT5, Rank 171",22.2687
same,Average LFQ intensity,"[5]; captured protein MARCKSL1, Rank 225",21.5548
same,Average LFQ intensity,"[6]; captured protein PSMA6, Rank 175",22.244
same,Average LFQ intensity,"[7]; captured protein RPS4X, Rank 140",22.7536
same,Average LFQ intensity,"[8]; captured protein HIST1H4A, Rank 180",22.1811
same,Average LFQ intensity,"[9]; captured protein PRDX1, Rank 177",22.2382
same,Average LFQ intensity,"[10]; captured protein SRSF6, Rank 196",21.8714
same,Average LFQ intensity,"[11]; captured protein SF3B2, Rank 136",22.8369
same,Average LFQ intensity,"[12]; captured protein GANAB, Rank 172",22.2601
same,Average LFQ intensity,"[13]; captured protein 2002-09-01 (Septin-2), Rank 174",22.2443
same,Average LFQ intensity,"[14]; captured protein HSPH1, Rank 164",22.3551
same,Average LFQ intensity,"[15]; captured protein IPO9, Rank 229",21.5093
same,Average LFQ intensity,"[16]; captured protein CDK19, Rank 226",21.5435
same,Average LFQ intensity,"[17]; captured protein HDAC6, Rank 137",22.8295
same,Average LFQ intensity,"[18]; captured protein RUVBL2, Rank 173",22.2484
same,Average LFQ intensity,"[19]; captured protein IKBKG, Rank 212",21.7256
Cc1ccc(C(=O)Nc2ccc(CN3CCN(C)CC3)c(C(F)(F)F)c2)cc1C#Cc1cnc2cccnn12 [PON],Average LFQ PON_WT,"[1]; MYO1C, Unconventional myosin-Ic",21.7408
same,Average LFQ PON_WT,"[2]; BAG2, BAG family molecular chaperone regulator 2",22.6462
same,Average LFQ PON_WT,"[3]; TCP1, T-complex protein 1 subunit alpha",22.697
same,Average LFQ PON_WT,"[4]; CCT5, T-complex protein 1 subunit epsilon",22.2687
same,Average LFQ PON_WT,"[5]; MARCKSL1, MARCKS-related protein",21.5548
same,Average LFQ PON_WT,"[6]; PSMA6, Proteasome subunit alpha type-6",22.244
same,Average LFQ PON_WT,"[7]; RPS4X, 40S ribosomal protein S4, X isoform",22.7536
same,Average LFQ PON_WT,"[8]; HIST1H4A, Histone H4",22.1811
same,Average LFQ PON_WT,"[9]; PRDX1, Peroxiredoxin-1",22.2382
same,Average LFQ PON_WT,"[10]; SRSF6, Serine/arginine-rich splicing factor 6",21.8714
same,Average LFQ PON_WT,"[11]; SF3B2, Splicing factor 3B subunit 2",22.8369
same,Average LFQ PON_WT,"[12]; GANAB, Neutral alpha-glucosidase AB",22.2601
same,Average LFQ PON_WT,"[13]; SEPT2, Septin-2",22.2443
same,Average LFQ PON_WT,"[14]; HSPH1, Heat shock protein 105 kDa",22.355
same,Average LFQ PON_WT,"[15]; IPO9, Importin-9",21.5093
same,Average LFQ PON_WT,"[16]; CDK19, Cyclin-dependent kinase 19",21.5435
same,Average LFQ PON_WT,"[17]; HDAC6, Histone deacetylase 6",22.8295
same,Average LFQ PON_WT,"[18]; RUVBL2, RuvB-like 2",22.2484
same,Average LFQ PON_WT,"[19]; IKBKG, NF-kappa-B essential modulator",21.7256
